Test results: patent US20210386829A1, “COMPOSITIONS AND METHODS FOR MODULATING CGRP SIGNALING TO REGULATE INNATE LYMPHOID CELL INFLAMMATORY RESPONSES” (The Broad Institute, Inc., priority 2018, published 2021)
“Also recorded” adds a separate entry of the source.

Tested on: IL-33-induced airway inflammation
Experiment: IL-33-induced airway inflammation, intranasal co-administration of CGRP
Assay type: in vivo, mouse
Excerpt: Mice and in vivo ILC activation. C57B1/6J mice were purchased from the Jackson Laboratory. Nmur1-LacZ reporter mice with a LacZ cassette knocked into the Nmur1 locus were rederived from Nmur1^tm1.1(KOMP)Vlcg sperm obtained from the trans-NIH Knock-Out Mouse Project (KOMP) Repository. NMU-deficient mice (NMU-KO) were rederived from B6.129S2-Nmu<tm1Mko> embryos from the RIKEN BioResource Center. For experiments with Nmur1-LacZ (Nmur1-KO) and NMU-KO mice, littermates that were either homozygous or heterozygous for the wild type allele were used as controls. Mice were housed under specific-pathogen-free conditions. For experiments, mice were matched for sex and age, and most mice were 6-10 weeks old. Where indicated, mice were anesthetized with Isoflurane and treated intranasally with the indicated stimuli (500 ng IL-25, 500 ng IL-33, or 20 μg Neuromedin U) daily for three consecutive days. The total administered volume was 20 μl for all conditions. Mice were randomly assigned to treatment groups after matching for sex and age. […] Mice were treated intranasally with 10 μg HDM on day 0, 7, 8, and 9, prior to sacrifice on day 10. All experiments were conducted in accordance with animal protocols approved by the Harvard Medical Area Standing Committee on Animals or BWH IACUC.
Lung analysis. Mice were sacrificed and perfused with cold PBS. Where indicated, after perfusion, broncho-alveolar lavage (BAL) was obtained by injecting 1.5 ml cold PBS into the lungs via a secured tracheal cannula. BALF was centrifuged, and the supernatant was used for analyzing cytokine levels and the cell pellet was resuspended, counted, and used for flow cytometry. Following BAL, lung lobes were dissected. The post-caval lobe was fixed in buffered formalin for histological analysis. Single cell suspensions of the remaining lung parenchymal tissue were prepared with the GentleMACS lung dissociation kit (Miltenyi Biotec) according to the manufacturer's instructions. Where indicated, cells were diluted in 10% Trypan Blue and viable cells counted using a hemocytometer.
Histology. Following paraffin embedding, sections of the formalin-fixed lung lobe were stained by H&E staining. Tissue sections were scored by a histopathologist in a blinded manner for severity of lung inflammation according to the following scoring system: 0=normal, 1=very mild, 2=mild, 3=moderate or 4=severe.
Methacholine challenge. Airway hyperresponsiveness was determined as previously described (Talbot, S. et al. Silencing Nociceptor Neurons Reduces Allergic Airway Inflammation. Neuron 87, 341-354, doi:10.1016/j.neuron.2015.06.007 (2015)) using a flexiVent rodent ventilator (SciReq).
Cytokine-induced airway inflammation. Mice received nasally 500 ng IL-25, 500 ng IL-33, 20 ug NMU or 6.65 ug CGRP diluted in DPBS for three consecutive days. For nasal administration, mice were lightly anesthetized with Isoflurane (Cat #07-893-1389; Patterson Veterinary). For induction of inflammatory ILC2s, mice received intraperitoneally 500 ng IL-25 for three consecutive days. One day after the last treatment, mice were euthanized and perfused with 8 ml cold PBS via the right heart ventricle. After exposure of the trachea, a small incision was made at the top of the trachea and a curved gavage needle was inserted. Lungs were washed with 1.5 ml cold PBS via the needle and the retrieved bronchoalveolar lavage fluid was centrifuged at 1300 rpm for 5 min at 4 C. After centrifugation, the supernatant was frozen at −20° C. and the cell pellet was resuspended in 250 ul complete medium and stored on ice until flow cytometric analysis. The post-caval lung lobe was transferred into 10% buffered formalin and stored at room temperature until paraffin embedding for histological analysis. […]

[1] = IL-33+CGRP vs IL-33 alone, intranasal, three consecutive days

For “CGRP: neuropeptide calcitonin gene-related peptide (encoded by Calca), ligand of the Ramp1/Calcrl receptor; given at 100 nM in vitro, 6.65 ug nasally”, which “lung histology (H&E)” value (CGRP alone vs PBS-treated control mice) is on record?
Its value is “histologically identical”.

And the “frequency or total number of lung-resident ILCs” value (CGRP alone vs PBS-treated mice)?
Its value is “did not alter”.

And the “IL-33-induced perivascular and peribronchial lymphocytic infiltrates in lung sections (H&E, blinded score)” value (IL-33+CGRP vs IL-33 alone)?
Its value is “markedly inhibited”.

And the “airway hyperreactivity (airway resistance, methacholine challenge)” value (IL-33+CGRP vs IL-33 alone)?
Its value is “less airway hyperreactivity”.

And the “frequency of IL-5- and IL-13-positive ILCs” value (IL-33+CGRP vs IL-33 alone)?
The value was “significantly reduced”.

What about the “frequency of Ki67+ lung ILCs” value (IL-33+CGRP vs IL-33 alone) of the same substance?
The value was “decreased frequencies”.

And the “lung ILC frequencies and numbers” value (IL-33+CGRP vs IL-33 alone)?
The value was “significantly reduced”.

And the “IL-5 and IL-13 protein in BALF (lung homogenates and BALF)” value [1]?
Its value is “lower; also recorded: reduced; also recorded: greatly diminished”.

What about the “eosinophil frequency in lungs and BALF” value [1] of the same substance?
The value was “significantly reduced; also recorded: significantly decreased”.

What about the “eosinophil numbers in lung (lung and BALF)” value [1] of the same substance?
Its value is “significantly reduced; also recorded: significantly decreased”.

What about the “Il5 and Il13 RNA expression in lung tissue (qPCR)” value (IL-33+CGRP vs IL-33 alone, intranasal, three consecutive days, analysed one day later) of the same substance?
The value was “significantly reduced”.
